{
  "source": "patent US9255272B2",
  "about": "“Use of inhibitors of leukotriene B4 receptor BLT2 for treating asthma” (Korea University Research & Business Foundation, priority 2007, dated 2016)",
  "key": {"OVA-challenged mice": {"system": "OVA-challenged mice", "assay": "Eosinophil infiltration in BAL fluid of OVA-challenged mice", "format": "in vivo, mouse", "settings": "C57BL/6 mice, 1.6 mg/kg i.v. 24 hr and 1 hr before 10% OVA challenge, 48 hr", "experimental": "(§1) Female BALB/c mice and C57BL/6 mice (7 weeks old; 18-20 g) were obtained from Orientbion Inc. (Seoungnam, Korea). Sensitization and challenge were carried out as described previously with some modification (28). Briefly, female C57BL/6 mice (7 weeks old; 18-20 g) were immunized by intraperitoneal (i.p.) injection of 200 μg ovalbumin (OVA) emulsified in 2.5 mg of adjuvant aluminum hydroperoxide gel (alum) (Pierce, Rockford, Ill.). A second i.p. injection of 20 μg OVA adsorbed onto alum (2.5 mg) was administered 10 days later. After an additional 10 days, mice were exposed to an aerosol of 1% OVA in saline for 30 min daily on 3 consecutive days. On day 25, mice were finally challenged by provocation with 10% OVA aerosol. For inhibition experiments, sense or antisense BLT2 (1.6 mg/kg) was injected intravenously 24 h and then 1 h before the 10% OVA challenge. The mice were then killed on day 27 to assess asthmatic phenotypes. Antisense BLT2 oligonucleotide (5′-[…]-3′ (SEQ ID NO: 15)), sense BLT2 oligonucleotide (5′-[…]-3′ (SEQ ID NO: 16)).\nInflammatory cells in the BAL fluid were collected by centrifugation (1,000 g for 3 min) and washed once in PBS. Cells were counted using a hemocytometer, and viability was assessed by trypan blue exclusion. […]"}, "ROS": {"system": "ROS", "assay": "ROS levels in BAL fluid cells (DCF fluorescence, FACS)", "format": "in vivo, mouse", "settings": "1.6 mg/kg i.v. 24 hr and 1 hr before 10% OVA; BAL fluid 48 h after challenge", "experimental": "as §1\nROS levels in BAL fluids were measured as a function of DCF fluorescence as described previously (30). […] DCF fluorescence was excited at 488 nm and the evoked emission was filtered with a 515-nm long-pass filter. […]"}, "BLT2 mRNA": {"system": "BLT2 mRNA", "assay": "BLT2 mRNA in Rat2-BLT2 stable cells (RT-PCR)", "format": "cell-based", "settings": "transient transfection, 24 h", "experimental": "Suppressed BLT2 expression level was determined by RT-PCR. Rat2-BI_T2 stable cells were plated at a density of 5×10^4 cells/plate on 6 well plates. After 24 hr, cells were transiently transfected with BLT2 specific antisense and sense oligonucleotide plasmid with Lipofectamin reagent and then incubated in fresh DMEM supplemented with 10% FBS for an additional 24 h. After additional incubation, the transfected cells were harvested for BLT2 transcripts analysis. Total RNA was reverse-transcribed and PCR amplify were performed with BLT2 forward primer: 5′-[…]-3′ (SEQ ID NO: 23) and reverse primer: 5′-[…]-3′ (SEQ ID NO: 24). Non-transfected Rat2-BLT2 stable cells cDNA was used the negative control and GAPDH was shown as internal control."}, "Rac": {"system": "Rac", "assay": "Endogenous Rac expression in lung tissue (Western blot)", "format": "in vivo, mouse", "settings": "oligonucleotides injected into tail veins, mice sacrificed after 12 hr", "description": "FIGS. 10a and 10b show activation of Rac in the lung tissue by OVA provocation and inhibition of endogenous Rac expression by antisense Rac oligonucleotide treatment. Lung samples were homogenized with micropestle and washed with PBS twice. FIG. 10a depicts Western blot analysis of Rac expression in mouse model of asthma. For membrane protein preparation, cells were suspended in Buffer A and cells were ruptured by passing through 21-G syringe. After ultracentrifugation, protein samples in pelleted membrane fraction were dissolved with buffer A containing 1% Triton X-100. FIG. 10b depicts Western blot analysis of Rac expression in mouse model of asthma administered with asRac. For whole cell lysate preparation, cells from the lung tissues of buffer, control Rac oligonucleotide or antisense Rac oligonucleotide injected mice were suspended with lysis buffer and incubated for 20 min. After centrifugation of the samples, protein quantification was carried out using Bradford reagent and Western blot analysis was performed.\nOligonucleotides, from Genotech Co. (Korea), were synthesized with a phosphorothioate backbone to improve the resistance to endonuclease. The antisense oligonucleotide consisted of 17 nucleotides analogues to the 5′ end of the murine Rac mRNA sequence, which spans the translation initiation site. […]"}},
  "data": [
    {"substance": "sense BLT2: sense BLT2 oligonucleotide 5′-GGAATGAGACACTACTGAGC-3′ (SEQ ID NO: 16) (listed as DNA, chemistry not given here) [reference compound]", "values": [
      {"measurement": "effect on eosinophil infiltration in BAL fluids (in words)", "setting": "OVA-challenged mice", "value": "no inhibitory effect"},
      {"measurement": "effect on ROS levels in BAL fluid (in words)", "setting": "ROS", "value": "not"}
    ]},
    {"substance": "BLT2 antisense oligonucleotide: BLT2 specific antisense oligonucleotide plasmid transfected into Rat2-BLT2 stable cells (antisense CAGCAGTGTCTCGTT; listed as DNA, chemistry not given here)", "values": [
      {"measurement": "level of BLT2 mRNA by RT-PCR", "setting": "BLT2 mRNA", "value": "reduced"}
    ]},
    {"substance": "control Rac: control oligonucleotide of same nucleotide composition, 5′-GATCAGTGCACACAGTG-3′ (SEQ ID NO: 21) (listed as DNA, chemistry not given here) [reference compound]", "values": [
      {"measurement": "endogenous expression of Rac in the lung tissues", "setting": "Rac", "value": "didn't show significant effect"}
    ]}
  ]
}
